In US12453716B2, “Small molecule antagonist to PACAP receptor and uses thereof” (University of Vermont and State Agricultural College, priority 2019, dated 2025):

Key:
PAC1 receptor [1] = target: T1, PAC1 receptor (Homo sapiens, UniProt P41586); test: PACAP-stimulated PAC1-EGFP receptor internalization in stable HEK cell line; type: cell-based
T1 construct: expressed in transfected cells
T1 sequence (P41586 21-468): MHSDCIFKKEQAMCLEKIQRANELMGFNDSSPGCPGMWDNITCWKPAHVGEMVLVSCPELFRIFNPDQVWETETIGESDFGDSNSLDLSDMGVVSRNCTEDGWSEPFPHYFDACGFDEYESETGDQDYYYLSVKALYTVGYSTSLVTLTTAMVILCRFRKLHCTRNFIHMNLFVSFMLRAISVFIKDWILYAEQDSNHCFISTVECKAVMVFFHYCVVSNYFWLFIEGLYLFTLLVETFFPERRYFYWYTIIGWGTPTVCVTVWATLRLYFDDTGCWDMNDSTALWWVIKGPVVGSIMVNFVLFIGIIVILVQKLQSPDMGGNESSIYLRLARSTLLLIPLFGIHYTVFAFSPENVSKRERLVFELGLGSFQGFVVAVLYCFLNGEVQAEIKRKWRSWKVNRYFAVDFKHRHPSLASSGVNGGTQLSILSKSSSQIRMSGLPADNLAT
Experimental: (§1) Compound I-1 blocks PAC1 receptor internalization and calcium signaling. […] Upon 25 nM PACAP application (15 min), the tagged receptor is internalized into intracellular endosomes for ERK signaling (PACAP, middle panel). However, pretreatment of the culture (15 min) with 10-25 μM I-1 blocked PACAP-stimulated receptor internalization (PACAP+I-1); the PAC1-EGFP receptors remained on the cell surface. In FIG. 2, using the same HEK PAC1-EGFP cell line, PACAP rapidly stimulated calcium signaling in Fura-2 assays. The response was blocked approximately 50% with 2.5 μM compound I-1, and was abolished with 25 μM I-1.

PAC1 receptor [2] = target: T1, PAC1 receptor; test: PACAP-stimulated calcium signaling, Fura-2 assay in HEK PAC1-EGFP cell line; type: cell-based; details: for PAC1 receptor-mediated calcium flux: concentration not given
Experimental: as §1
The PAC1-EGFP HEK cell lines were preloaded with Fura-2 for calcium imaging. PACAP alone produced robust calcium signals.

PAC1 receptor [3] = target: T1, PAC1 receptor; test: PACAP-stimulated ERK phosphorylation/activation in HEK PAC1-EGFP receptor cell line; type: cell-based; details: for PAC1 receptor endosomal/ligand-mediated ERK activation: concentration not given
Experimental: In FIG. 3, using the stably expressing HEK PAC1-EGFP receptor cell line, compound I-1 blocks 25 nM PACAP-stimulated ERK phosphorylation and activation (p42 and p44 ERK bands) in a dose-dependent manner. […] In similar assays, the other compounds (I-2 to I-26) can block PACAP-stimulated ERK signaling with an apparent IC50 of 25 μM.
In FIG. 5, the compound I-20 acts as a glucagon receptor (GCGR) antagonist by binding to an extra-helical allosteric site on the receptor. […] In FIG. 6, the addition of compound I-20 can increase the efficacy and potency of […] inhibiting PACAP-stimulated ERK activation.
In FIG. 7, all samples were pretreated with 25 μM acyl hydrazide before 25 nM PACAP application. Glucagon antagonist is I-20. Data normalized to total cellular ERK not shown.

male rats = test: Open field test after BNST infusion, PACAP-induced anxiety-related behavior; type: in vivo, rat; details: FIG. 8
Source text: Compound I-1 blocks PACAP-induced anxiety-related behavior. In FIG. 8, male rats were cannulated bilaterally into the BNST. […] PACAP infusions into the BNST produced stress/anxiety-like responses as reflected by decreased center field times (duration in seconds). […] In the right panel, the open field entry data was not affected by changes in animal locomotion. Asterisk, statistically different from other groups. Note: I-1+PACAP returned open field times to untreated control levels.

O=C(N/N=C/c1cccc2c1ccn2Cc1cc(F)cc(F)c1)c1ccc(O)c(Cl)c1 [Compound I-1, (E)-3-chloro-N′-((1-(3,5-difluorobenzyl)-1H-indol-4-yl)methylene)-4-hydroxybenzohydrazide]
PACAP-stimulated receptor internalization (PAC1 receptor [1]; 15 min pretreatment with 10-25 μM compound, 25 nM PACAP, 15 min, FIG. 1): blocked
PACAP-stimulated calcium signal blocked (PAC1 receptor [2]; 2.5 μM compound): approximately 50%
PACAP-stimulated calcium signal/flux (PAC1 receptor [2]; 25 μM compound): abolished
PACAP-stimulated ERK activation (PAC1 receptor [3]; 25 μM compound, 25 nM PACAP, FIG. 3): near control levels
IC50 (PAC1 receptor [3]; normalized to total ERK levels, approximate/apparent, FIG. 4, read-out: IC50 in inhibiting PACAP-stimulated ERK activation): 8 to 10 µM
Open field center field time, compound alone compared to control (male rats; 5-10 μM infusion into the BNST, no PACAP): no apparent effects
PACAP-induced stress/anxiety responses (open field center field time) (male rats; BNST preinjection of compound before PACAP infusion): completely blocked

Cc1cc(C)c(C)c(Cn2ccc3c(/C=N/NC(=O)c4ccc(O)c(Cl)c4)cccc32)c1C [Compound I-19, (E)-3-chloro-4-hydroxy-N′-((1-(2,3,5,6-tetramethylbenzyl)-1H-indol-4-yl)methylene)benzohydrazide]
PAC1 receptor-mediated calcium flux (PAC1 receptor [2]): completely blocking
PAC1 receptor endosomal/ligand-mediated ERK activation (PAC1 receptor [3]): without apparent effects

COc1ccc2cc(-c3cc(-c4cc(Cl)cc(Cl)c4)nn3C(C)c3ccc(C(=O)NCCC(=O)O)cc3)ccc2c1 (stereo not drawn) [Compound I-20]
ERK activation attenuated (PAC1 receptor [3]; 25 μM compound, FIG. 5): approximately 50%
Antagonism at the PAC1-receptor compared to I-1 (PAC1 receptor [3]; FIG. 5): weak antagonist
PACAP-stimulated ERK activation, combination (PAC1 receptor [3]; I-20 together with 10 μM I-1, FIG. 6): basal or near-basal levels

O=C(N/N=C/c1cccc2c1ccn2Cc1cccc(C(F)(F)F)c1)c1ccc(O)c(Cl)c1 [Compound I-21, reference compound]
PAC1 receptor internalization (PAC1 receptor [1]; concentration not given): modest effects
PAC1 receptor-mediated calcium flux (PAC1 receptor [2]): attenuate
PAC1 receptor endosomal/ligand-mediated ERK activation (PAC1 receptor [3]): modest effects
